# Assay results: patent US20220354860A1, “HETEROCYCLIC DERIVATIVES AND USE THEREOF” (Fochon Pharmaceuticals, Ltd., priority 2019, published 2022)
# Tests used:
# [1] = biological target: T1, URAT1 (Homo sapiens, UniProt Q96S37); assay: URAT1 inhibitor activity, MDCK cells; type: cell-based; set-up: host or cells: MDCK; conditions: URAT1 inhibition
# T1 sequence (Q96S37 1-553): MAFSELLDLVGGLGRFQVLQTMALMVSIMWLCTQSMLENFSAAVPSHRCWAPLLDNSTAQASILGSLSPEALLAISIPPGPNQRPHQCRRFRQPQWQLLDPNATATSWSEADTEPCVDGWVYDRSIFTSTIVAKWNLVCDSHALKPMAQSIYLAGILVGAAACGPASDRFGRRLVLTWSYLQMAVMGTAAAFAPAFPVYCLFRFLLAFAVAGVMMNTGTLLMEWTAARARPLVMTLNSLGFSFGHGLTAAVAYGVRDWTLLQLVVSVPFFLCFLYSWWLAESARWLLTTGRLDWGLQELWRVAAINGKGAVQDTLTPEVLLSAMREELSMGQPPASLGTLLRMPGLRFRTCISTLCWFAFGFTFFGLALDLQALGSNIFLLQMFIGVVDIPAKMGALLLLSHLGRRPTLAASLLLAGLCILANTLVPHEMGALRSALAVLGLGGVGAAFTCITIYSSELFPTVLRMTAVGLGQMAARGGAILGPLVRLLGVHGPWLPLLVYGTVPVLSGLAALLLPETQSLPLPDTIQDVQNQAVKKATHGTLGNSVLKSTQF
# [2] = biological target: T1, URAT1; assay: URAT1 inhibitor activity, 14C-uric acid uptake in HEK293-URAT1 cells; type: cell-based; conditions: URAT1 inhibition, 14C-Uric acid 5.0 μmol/L, 2 min
# Experimental: The potency of the compounds of formula (I) as inhibitors of the URAT1 was determined as follow.
# HEK293-URAT1 cell Lines were donated by Japan Fuji Biomedical Research Institute. Negative control cell of HEK293 (MOCK cells) which was transfected with pcDNA3.1 empty vector. HEK293-URAT1 cell lines and MOCK cell lines were cultured in complete growth medium consisting of DMEM supplemented with 10% FBS, penicillin and streptomycin.
# Preparation of working solution: Each stock solutions was diluted to different concentrations (6, 20, 60, 200 and 600 μmol/L) with DMSO as 200× working solution, which was then diluted to 2× compound working solution with HBSS (Cl^− free) buffer. Radiolabeled substrate ^14C-Uric acid solution was diluted with HBSS (Cl^− free) buffer to obtain 2× working solution which was mixed with an equal volume of 2× compound working solution to obtain the mixture of radiolabeled substrate and compound working solution.
# HER293-URAT1 and MOCK cells were seeded onto 24-well plates at the density of 1.5×10^6 cells per well. The cells were incubated at 37° C., 5% CO2 overnight. After cultured for approximately 2 to 3 days, cells were used for the experiments. The culture medium were removed from the wells, and cells were washed with HBSS (Cl^− free) and incubated in 37° C. HBSS (Cl^− free) for 10 min. HBSS was replaced with 500 μL of the mixture of radiolabeled substrate and compound working solution. The final concentration of ^14C-Uric acid in the assay was 5.0 μmol/L. Plates were incubated at 37° C., 5% CO2 for 2 min, and the reaction was stopped by the addition of pre-chilled HBSS (Cl^− free) by washing three times. 400 μL, NaOH (0.1 mmol/L) was added to lyse the cells and the cell lysate was collected to scintillation vials, and 3 ml scintillant (Aquasol-2, PerkinElmer) was added and after mixing completely, the radioactivity was counted by Tri-Carb 2910TR liquid scintillation counter. Each concentration of compounds, positive control and negative control were repeated in two wells (n=2). Inhibition % data were calculated using the formula:
# Inhibition=[100×(U−U0)/(Uc−U0)]%, and analyzed using Prism5 software. • U0: Average of signals of MOCK cells; • Uc: Average of signals of radiolabeled substrate. The half inhibition concentration of the tested compounds to URAT1 were analyzed using Prism 5 software.
# [3] = biological target: T2, CYP2C9 (Homo sapiens, UniProt P11712); assay: CYP inhibition assay in human liver microsomes; type: in vitro ADME; conditions: human liver microsomes 0.200 mg/mL, 37° C. for 10 minutes
# T2 construct: conducted using human liver microsomes; from tissue; host or cells: human liver microsomes
# Experimental: The CYP inhibition assay was conducted using human liver microsomes at 0.200 mg/mL with a marker substrate for CYP2C9. The substrate concentrations employed were similar to published Michaelis-Menten constants (Km) for each of the respective reactions. The test compounds were added at 8 concentrations (0, 0.0500, 0.150, 0.500, 1.50, 5.00, 15.0, and 50.0 μM). A known inhibitor for the isozyme, at a single concentration (3.00 μM) in duplicates, was selected as the positive control. The reaction in the presence of the organic solvent instead of test compounds served as vehicle control. The final content of organic solvent in all the reactions was up to 0.5% DMSO and 0.5% methanol.
# Reactions were initiated by adding NADPH followed by incubation at 37° C. for 10 minutes. And reactions were terminated by adding a 2-fold volume ice-cold acetonitrile with internal standards. Samples were processed and analyzed by liquid chromatography tandem mass spectrometry (LC-MS/MS).The results are given in the Table 4.
# T2 sequence (P11712 whole entry): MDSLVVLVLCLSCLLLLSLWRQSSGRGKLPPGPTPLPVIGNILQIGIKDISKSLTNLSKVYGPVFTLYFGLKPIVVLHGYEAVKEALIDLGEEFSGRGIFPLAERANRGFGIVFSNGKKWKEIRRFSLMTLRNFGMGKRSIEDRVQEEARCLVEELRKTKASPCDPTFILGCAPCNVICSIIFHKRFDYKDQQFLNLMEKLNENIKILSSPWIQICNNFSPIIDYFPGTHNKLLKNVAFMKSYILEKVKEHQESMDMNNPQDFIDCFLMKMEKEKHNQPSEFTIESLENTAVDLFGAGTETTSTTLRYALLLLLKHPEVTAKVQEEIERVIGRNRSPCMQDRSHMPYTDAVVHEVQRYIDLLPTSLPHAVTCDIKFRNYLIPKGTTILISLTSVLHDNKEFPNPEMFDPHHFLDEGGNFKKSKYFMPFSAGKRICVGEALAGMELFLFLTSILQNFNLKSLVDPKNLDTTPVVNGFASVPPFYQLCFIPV
SMILES,IC50 [1],IC50 [2],IC50 [3]
"Cc1nn(C)c2c1OCCN2C(=O)c1cc(Br)c(O)c(Br)c1 [Example 10, (3,5-dibromo-4-hydroxyphenyl)(1,3-dimethyl-5,6-dihydropyrazolo[4,3-b] [1,4]oxazin-7(1H)-yl)methanone]",85 nM,< 30 nM,16.2 µM
"Cc1nn(C)c2c1OC(C)(C)CN2C(=O)c1cc(Br)c(O)c(Br)c1 [Example 13, (3,5-dibromo-4-hydroxyphenyl)(1,3,5,5-tetramethyl-5,6-dihydropyrazolo[4,3-b][1,4]oxazin-7(1H)-yl)methanone]",84 nM,,
Cc1nn(C)c2c1O[C@H](C)CN2C(=O)c1cc(Br)c(O)c(Br)c1 [Example 18],37 nM,,16 µM
"O=C(c1cc(Br)c(O)c(Br)c1)N1CCOc2[nH]ncc21 [Example 20, (3,5-dibromo-4-hydroxyphenyl)(5,6-dihydropyrazolo[3,4-b][1,4]oxazin-4(1H)-yl)methanone]",,235 nM,
"Cn1ncc2c1N(C(=O)c1cc(Br)c(O)c(Br)c1)CCO2 [Example 2, (3,5-Dibromo-4-hydroxyphenyl)(1-methyl-5,6-dihydropyrazolo[4,3-b][1,4]oxazin-7(1H)-yl)methanone]",29 nM,69 nM,> 50 µM
"C[C@@H]1CN(C(=O)c2cc(Br)c(O)c(Br)c2)c2c(cnn2C)O1 [Example 1, (R)-(3,5-dibromo-4-hydroxyphenyl)(1,5-dimethyl-5,6-dihydropyrazolo[4,3-b][1,4]oxazin-7(1H)-yl)methanone]",25 nM,62 nM,15.5 µM
"Cn1ncc2c1N(C(=O)c1cc(Br)c(O)c(Br)c1)CC(C)(C)O2 [Example 12, (3,5-dibromo-4-hydroxyphenyl)(1,5,5-trimethyl-5,6-dihydropyrazolo[4,3-b] [1,4]oxazin-7(1H)-yl)methanone]",80 nM,,
"Cc1nn(C)c2c1SCCN2C(=O)c1cc(Br)c(O)c(Br)c1 [Example 23, (3,5-dibromo-4-hydroxyphenyl)(1,3-dimethyl-5,6-dihydropyrazolo[4,3-b][1,4]thiazin-7(1H)-yl)methanone]",189 nM,,
"C[C@H]1CN(C(=O)c2cc(Br)c(O)c(Br)c2)c2c(cnn2C)O1 [Example 5, (S)-(3,5-dibromo-4-hydroxyphenyl) (1,5-dimethyl-5,6-dihydropyrazolo[4,3-b][1,4]oxazin-7(1H)-yl)methanone]",93 nM,40 nM,18.9 µM
"Cc1nn(C)c2c1O[C@@H](C)CN2C(=O)c1cc(Br)c(O)c(Br)c1 [Example 15, (S)-(3,5-dibromo-4-hydroxyphenyl) (1,3,5-trimethyl-5,6-dihydropyrazolo[4,3-b][1,4]oxazin-7(1H)-yl)methanone]",126 nM,,
"Cn1ncc2c1OCCN2C(=O)c1cc(Br)c(O)c(Br)c1 [Example 21, (3,5-dibromo-4-hydroxyphenyl)(1-methyl-5,6-dihydropyrazolo[3,4-b][1,4]oxazin-4(1H)-yl)methanone]",,297 nM,
"O=C(c1cc(Br)c(O)c(Br)c1)N1CCOc2cn[nH]c21 [Example 3, (3,5-dibromo-4-hydroxyphenyl)(5,6-dihydropyrazolo[4,3-b][1,4]oxazin-7(1H)-yl)methanone]",,130 nM,
"Cn1ncc2c1N(C(=O)c1cc(Cl)c(O)c(Cl)c1)CCO2 [Example 14, (3,5-dichloro-4-hydroxyphenyl)(1-methyl-5,6-dihydropyrazolo[4,3-b][1,4]oxazin-7(1H)-yl)methanone]",252 nM,,
"Cn1ncc2c1N(C(=O)c1cc(Br)c(O)c(Br)c1)CCC2 [Example 11, (3,5-dibromo-4-hydroxyphenyl)(1-methyl-1,4,5,6-tetrahydro-7H-pyrazolo [3,4-b]pyridin-7-yl)methanone]",,100 nM,
"Cc1nn(C)c2c1OC1(CC1)CN2C(=O)c1cc(Br)c(O)c(Br)c1 [Example 17, (3,5-dibromo-4-hydroxyphenyl)(1′,3′-dimethyl-1′H-spiro[cyclopropane-1,5′-pyrazolo[4,3-b][1,4]oxazin]-7′(6′H)-yl)methanone]",60 nM,,10.4 µM
"Cn1ncc2c1N(C(=O)c1cc(Br)c(O)c(Br)c1)CC1(CC1)O2 [Example 16, (3,5-dibromo-4-hydroxyphenyl)(1′-methyl-1′H-spiro[cyclopropane-1,5′-pyrazolo[4,3-b][1,4]oxazin]-7′(6′H)-yl) methanone]",48 nM,,4.25 µM
"Cn1cc2c(n1)N(C(=O)c1cc(Br)c(O)c(Br)c1)CCO2 [Example 19, (3,5-dibromo-4-hydroxyphenyl)(2-methyl-5,6-dihydropyrazolo[4,3-b][1,4]oxazin-7(2H)-yl)methanone]",,339 nM,
